Each block holds one molecule with its values, some of them ahead of it.
How the values were obtained:
SETFA = assay: greenhouse post-emergence herbicidal test; assay type: in vivo, giant foxtail; details: 125 or 250 g/ha (a.s.)
Excerpt: (§1) The seeds of the test plants were sown separately for each species. For the post-emergence treatment, the test plants were first grown to a plant height of from 3 to 15 cm, depending on the plant habit, and only then treated with the active compounds which had been suspended or emulsified in water. To this end, the test plants were either sown directly and grown in the same containers, or they were first grown separately as seedlings and transplanted into the test containers a few days prior to treatment. The rate of application for the post-emergence treatment was 250, 125, 62.5, 31.3 and/or 15.6 g/ha of active substance (a.s.). Depending on the species, the plants were kept at from 10 to 25° C., or 20-35° C., respectively. The test period extended over 2 to 4 weeks. During this time, the plants were tended, and their response to the individual treatments was evaluated. Evaluation was carried out using a scale of from 0 to 100. 100 means no emergence of the plants, or complete destruction of at least the aerial parts, and 0 means no damage, or normal course of growth. A damage of at least 95% corresponds to very good herbicidal action. The plants used in the greenhouse experiments were of the following species: [table]

ABUTH = assay: greenhouse post-emergence herbicidal test; assay type: in vivo, velvet leaf; details: 125 or 250 g/ha (a.s.)
Excerpt: as §1

BRAPL = assay: greenhouse post-emergence herbicidal test; assay type: in vivo, marmalade grass; details: 125 or 250 g/ha (a.s.)
Excerpt: as §1

PHBPU = assay: greenhouse post-emergence herbicidal test; assay type: in vivo, morning glory, common
Excerpt: as §1, with “The rate of application for the post-emergence treatment was 250, 125, 62.5, 31.3 and/or 15.6 g/ha of active substance (a.s.).” left out

AMARE = assay: greenhouse post-emergence herbicidal test; assay type: in vivo, redroot pigweed; details: 125 or 250 g/ha (a.s.)
Excerpt: as §1

CHEAL = assay: greenhouse post-emergence herbicidal test; assay type: in vivo, lambs' quarters (goose-foot)
Excerpt: as §1, with “The rate of application for the post-emergence treatment was 250, 125, 62.5, 31.3 and/or 15.6 g/ha of active substance (a.s.).” left out

ECHCG = assay: greenhouse post-emergence herbicidal test; assay type: in vivo, barnyard grass
Excerpt: as §1, with “The rate of application for the post-emergence treatment was 250, 125, 62.5, 31.3 and/or 15.6 g/ha of active substance (a.s.).” left out

POLPE = assay: greenhouse post-emergence herbicidal test; assay type: in vivo, lady's thumb; details: 31.3 g/ha (a.s.), read-out: herbicidal action against POLPE
Excerpt: as §1

MATIN = assay: greenhouse post-emergence herbicidal test; assay type: in vivo, chamomile, false; details: 125 or 62.5 g/ha (a.s.)
Excerpt: as §1

SINAL = assay: greenhouse post-emergence herbicidal test; assay type: in vivo, white mustard; details: 125 or 62.5 g/ha (a.s.)
Excerpt: as §1

LAMAM = assay: greenhouse post-emergence herbicidal test; assay type: in vivo, henbit; details: 125 or 62.5 g/ha (a.s.)
Excerpt: as §1

SMILES: CCn1c(=O)sc2ccc(C(=O)C3=C(O)CC(C)(C)CC3=O)c(C)c21 [Compound I-1c.1131]
herbicidal action against SETFA (SETFA): very good herbicidal action (A damage of at least 95% corresponds to very good herbicidal action)

SMILES: CCn1c(=O)sc2ccc(C(=O)C3=C(O)CCCC3=O)c(C)c21 [Compound I-1a.1131]
herbicidal action against ABUTH (ABUTH): very good herbicidal action (A damage of at least 95% corresponds to very good herbicidal action)

SMILES: CCn1c(=O)sc2ccc(C(=O)C3=C(O)C4CCC(C4)C3=O)c(C)c21 (centres unmarked) [Compound I-1x.1131]
herbicidal action against SETFA (SETFA): very good herbicidal action (A damage of at least 95% corresponds to very good herbicidal action) | herbicidal action against BRAPL (BRAPL): very good herbicidal action (A damage of at least 95% corresponds to very good herbicidal action)

SMILES: Cc1c(C(=O)C2=C(O)CC(C)(C)CC2=O)ccc2sc(=O)n(C)c12 [Compound I-1c.1129, 3,4-dimethyl-5-(5′,5′-dimethyl-1′,3′-cyclohexanedion-2′-yl)-carbonylbenzothiazol-2-one]
herbicidal action against PHBPU (PHBPU; 125 or 62.5 g/ha (a.s.)): very good herbicidal action (A damage of at least 95% corresponds to very good herbicidal action)

SMILES: CCCCn1c(=O)oc2ccc(C(=O)C3=C(O)CCCC3=O)c(C)c21 [Compound I-1a.6]
herbicidal action against AMARE (AMARE): very good herbicidal action (A damage of at least 95% corresponds to very good herbicidal action)

SMILES: Cc1c(C(=O)C2=C(O)C(C)(C)C(=O)C(C)(C)C2=O)ccc2sc(=O)n(C)c12 [Compound I-1d.1129, 3,4-dimethyl-5-(4′,4′,6′,6′-tetramethyl-1′,3′,5′-cyclohexane-trion-2′-yl)-carbonylbenzothiazol-2-one]
herbicidal action against CHEAL (CHEAL; 16.5 g/ha of a.s.): good to very good herbicidal action | pest or weed control at 31.3 g/ha (CHEAL; Chenopodium album, 31.3 g/ha (a.s.), read-out: herbicidal action against CHEAL): ≥ 95% | herbicidal action against ECHCG (ECHCG; 16.5 g/ha of a.s.): good to very good herbicidal action | herbicidal action against ECHCG (ECHCG; 31.3 g/ha (a.s.)): good to very good herbicidal action | herbicidal action against PHBPU (PHBPU; 16.5 g/ha of a.s.): very good herbicidal action (A damage of at least 95% corresponds to very good herbicidal action) | herbicidal action against PHBPU (PHBPU; 31.3 g/ha (a.s.)): very good herbicidal action (A damage of at least 95% corresponds to very good herbicidal action) | pest or weed control at 31.3 g/ha (POLPE): ≥ 95%

SMILES: C=CCn1c(=O)oc2ccc(C(=O)C3=C(O)CCCC3=O)c(C)c21 [Compound I-1a.29]
herbicidal action against AMARE (AMARE): very good herbicidal action (A damage of at least 95% corresponds to very good herbicidal action)

SMILES: Cc1c(C(=O)C2=C(O)CCCC2=O)ccc2sc(=O)n(C)c12 [Compound I-1a.1129, 3,4-dimethyl-5-(1′,3′-cyclohexanedion-2′-yl)carbonylbenzothiazol-2-one]
herbicidal action against MATIN (MATIN): very good herbicidal action (A damage of at least 95% corresponds to very good herbicidal action) | herbicidal action against SINAL (SINAL): very good herbicidal action (A damage of at least 95% corresponds to very good herbicidal action) | herbicidal action against LAMAM (LAMAM): very good herbicidal action (A damage of at least 95% corresponds to very good herbicidal action)

SMILES: CCCCn1c(=O)sc2ccc(C(=O)C3=C(O)C4CCC(C4)C3=O)c(C)c21 (centres unmarked) [Compound I-1x.1134]
herbicidal action against ABUTH (ABUTH): very good herbicidal action (A damage of at least 95% corresponds to very good herbicidal action) | herbicidal action against SETFA (SETFA): very good herbicidal action (A damage of at least 95% corresponds to very good herbicidal action)

SMILES: CCn1c(=O)sc2ccc(C(=O)C3=C(O)C(C)(C)C(=O)C(C)(C)C3=O)c(C)c21 [Compound I-1d.1131]
herbicidal action against ABUTH (ABUTH): very good herbicidal action (A damage of at least 95% corresponds to very good herbicidal action) | herbicidal action against SETFA (SETFA): very good herbicidal action (A damage of at least 95% corresponds to very good herbicidal action) | herbicidal action against AMARE (AMARE): very good herbicidal action (A damage of at least 95% corresponds to very good herbicidal action)

SMILES: CCCCn1c(=O)sc2ccc(C(=O)C3=C(O)C(C)(C)C(=O)C(C)(C)C3=O)c(C)c21 [Compound I-1d.1134]
herbicidal action against ABUTH (ABUTH): very good herbicidal action (A damage of at least 95% corresponds to very good herbicidal action) | herbicidal action against AMARE (AMARE): very good herbicidal action (A damage of at least 95% corresponds to very good herbicidal action)

The next lines start with the values.

melting point: 129 to 132 °C
SMILES: C=CCCn1c(=O)sc2ccc(C(=O)C3=C(O)C4CCC(C4)C3=O)c(C)c21 (centres unmarked) [Example 40]

melting point: 115 to 116 °C
SMILES: CCCCn1c(=O)oc2ccc(C(=O)C3=C(O)CC(C)(C)CC3=O)c(C)c21 [Example 10]

melting point: 147 to 149 °C
SMILES: CC#CCn1c(=O)sc2ccc(C(=O)C3=C(O)CC(C)(C)CC3=O)c(C)c21 [Example 33]

melting point: 139 to 143 °C
SMILES: Cc1c(C(=O)C2=C(O)CC(C)(C)CC2=O)ccc2oc(=O)n(C)c12 [Example 7]

melting point: 161 to 166 °C
SMILES: Cc1c(C(=O)C2=C(O)CC(C)(C)CC2=O)ccc2sc(=O)n(Cc3ccccc3)c12 [Example 32]

melting point: 207 to 209 °C
SMILES: Cc1c(C(=O)C2=C(O)CCCC2=O)ccc2oc(=O)n(C)c12 [Example 6]

melting point: 129 to 135 °C
SMILES: CCCn1c(=O)sc2ccc(C(=O)C3=C(O)CC(C)(C)CC3=O)c(C)c21 [Example 25]

melting point: 189 to 193 °C
SMILES: CCCn1c(=O)oc2ccc(C(=O)C3=C(O)CC(C)(C)CC3=O)c(C)c21 [Example 29]

melting point: 150 to 151 °C
SMILES: CCn1c(=O)sc2ccc(C(=O)C3=C(n4cccn4)CC(C)(C)CC3=O)c(C)c21 [Example 21]

melting point: 101 to 110 °C
SMILES: Cc1c(C(=O)C2=C(O)C3CCC(C3)C2=O)ccc2sc(=O)n(C)c12 (centres unmarked) [Example 4]

melting point: 143 to 150 °C
SMILES: C=CCn1c(=O)sc2ccc(C(=O)C3=C(O)CC(C)(C)CC3=O)c(C)c21 [Example 5]

Reference: patent US6908884B2, “Benzazolonylcarbonylcyclohexenones and their use as herbicides” (BASF Aktiengesellschaft, priority 2000, dated 2005)
